{"source": "BindingDB's records for patent US20240190892", "about": "(Merck Sharp & Dohme, 2024)", "key": {"Plasma kallikrein": {"target": "Plasma kallikrein (Homo sapiens, UniProt P03952)", "sequence (P03952 20-390 limits assumed)": "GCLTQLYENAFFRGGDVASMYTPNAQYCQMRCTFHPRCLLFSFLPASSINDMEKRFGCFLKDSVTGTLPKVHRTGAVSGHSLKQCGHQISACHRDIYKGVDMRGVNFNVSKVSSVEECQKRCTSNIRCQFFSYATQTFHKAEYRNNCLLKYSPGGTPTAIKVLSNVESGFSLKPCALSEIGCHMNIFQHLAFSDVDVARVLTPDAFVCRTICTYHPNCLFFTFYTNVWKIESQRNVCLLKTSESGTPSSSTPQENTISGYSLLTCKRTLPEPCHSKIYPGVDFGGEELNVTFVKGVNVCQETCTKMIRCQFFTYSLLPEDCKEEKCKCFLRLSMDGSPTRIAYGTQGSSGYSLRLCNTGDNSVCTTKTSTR", "sequence (P03952 391-638 limits assumed)": "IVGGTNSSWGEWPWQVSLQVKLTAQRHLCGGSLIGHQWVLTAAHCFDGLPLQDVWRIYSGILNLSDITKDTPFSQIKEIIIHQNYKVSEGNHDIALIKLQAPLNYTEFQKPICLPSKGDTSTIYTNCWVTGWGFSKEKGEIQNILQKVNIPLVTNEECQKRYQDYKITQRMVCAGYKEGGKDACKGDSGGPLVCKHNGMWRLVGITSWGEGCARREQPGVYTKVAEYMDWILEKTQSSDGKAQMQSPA", "assay": "Plasma Kallikrein Assay", "description": "(§1) The effectiveness of a compound of the present invention as an inhibitor of plasma kallikrein can be determined using a relevant purified serine protease, and an appropriate synthetic substrate. The rate of hydrolysis of the chromogenic or fluorogenic substrate by the relevant serine protease was measured both in the absence and presence of compounds of the present invention. Assays were conducted at rt or at 37° C. […] A decrease in the rate of fluorescence change in the presence of inhibitor is indicative of enzyme inhibition. Such methods are known to one skilled in the art. The results of this assay are expressed as the half-maximal inhibitory concentrations (IC50), or the inhibitory constant, Ki."}, "Coagulation factor XI": {"target": "Coagulation factor XI (Homo sapiens, UniProt P03951)", "sequence (P03951 19-387 limits assumed)": "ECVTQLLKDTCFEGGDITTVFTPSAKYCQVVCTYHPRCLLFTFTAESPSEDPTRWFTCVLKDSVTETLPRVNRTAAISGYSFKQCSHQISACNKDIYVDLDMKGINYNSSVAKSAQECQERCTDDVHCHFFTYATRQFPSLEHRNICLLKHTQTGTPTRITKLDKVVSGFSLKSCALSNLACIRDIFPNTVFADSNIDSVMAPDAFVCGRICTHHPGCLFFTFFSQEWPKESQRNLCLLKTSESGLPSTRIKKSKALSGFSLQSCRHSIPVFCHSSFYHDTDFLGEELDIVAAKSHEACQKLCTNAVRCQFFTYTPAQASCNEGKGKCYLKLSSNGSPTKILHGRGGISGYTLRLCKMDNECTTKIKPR", "sequence (P03951 388-625 limits assumed)": "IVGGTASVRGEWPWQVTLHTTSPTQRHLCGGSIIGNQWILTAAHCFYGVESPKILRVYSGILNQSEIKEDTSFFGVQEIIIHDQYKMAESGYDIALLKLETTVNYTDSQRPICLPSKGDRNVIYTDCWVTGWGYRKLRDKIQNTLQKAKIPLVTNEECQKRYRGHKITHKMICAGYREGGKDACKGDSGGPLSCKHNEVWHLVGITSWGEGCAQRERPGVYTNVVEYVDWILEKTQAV", "assay": "Factor XIa Assay", "description": "as §1, with “Coagulation factor XIa” for “plasma kallikrein”"}}}
{"smiles": "CC1(O)CN(c2ccc(CNC(=O)c3cncc(N4CC[C@]5(C4)OC(=O)Nc4ccc(Cl)c(F)c45)n3)cn2)C1", "note": "[US20240190892, Example 35]", "values": [{"measurement": "IC50", "setting": "Plasma kallikrein", "value": 0.0284, "unit": "µM"}, {"measurement": "IC50", "setting": "Coagulation factor XI", "value": "≥ 10", "unit": "µM"}]}
